Test results from PubChem BioAssay AID1963865 (Molecular Pharmacology Branch, DTP, NCI, 2024).
Where “and” joins values, the source holds several entries; their conditions need not be identical. Equal entries are not always repeated.

System: KRAS PDC multicell spheroid viability
Test: Anticancer human tumor 825966-067-R-J1-PDC patient-derived colon carcinoma cell line growth inhibition [KRAS2]
Settings: for viability, T/C: stronger effect = lower value
Source text: Multicellular complex tumor spheroid response to RAS pathway inhibitors in combination with a targeted agents in patient-derived cell lines with oncogenic KRAS variants from multiple cancer types
A high-throughput screen of multi-cell type tumor spheroids was designed to identify active combinations of targeted small molecules and KRAS pathway inhibitors. Complex spheroids include a stromal component modeled by human endothelial cells (HUVEC) and fibroblasts modeled by human mesenchymal stem cells (MSCs). The concentration ranges selected for each drug and investigational agent were based upon clinically achievable concentrations if the clinical Cmax of the agent was known.
Compounds. The drugs and investigational agents: BI-3406 (NSC825286), BAY-293 (NSC824723), batoprotafib (TNO155; NSC825523), sotorasib (AMG 510; NSC818433), MRTX1257 (NSC819558), elimusertib (BAY 1895344; NSC800525), molibresib (GSK525762; NSC774829), temuterkib (LY3214996; NSC803410), venetoclax (NSC766270), alisertib (NSC759677), olaparib (NSC753686), talazoparib (NSC767125), erdafitinib (NSC781556), ipatasertib (NSC767898), cabozantinib (NSC761068), nintedanib (NSC756659), abemaciclib (NSC768073), docetaxel (NSC628503), trametinib (NSC758246), and sapanisertib (NSC764658) were obtained from the National Cancer Institute (NCI) Developmental Therapeutics Program Chemical Repository. The FDA-approved anticancer drug set is available from the Developmental Therapeutics Program. […] The stock solutions were prepared in dimethyl sulfoxide (DMSO, Sigma-Aldrich, St. Louis, MO, cat. D2650) at 800-fold the tested concentration and stored at -70 degrees C prior to their use. All drugs and investigational agents were tested over a range starting from a high concentration at or near the clinical Cmax and decreasing in half-log increments. If the clinical Cmax for an agent had not been determined, the highest concentration tested was 10 microM.
Cell Culture. All cells were maintained in an incubator at 37 degrees C and 5% CO2 with 95% humidity. The PDC lines were cultured according to standard operating procedures established by the NCI PDMR (https://pdmr.cancer.gov/sops/default.htm). Briefly, all PDCs were thawed and cultured in Matrigel-coated flasks prepared with a working solution of 1X Ham's F-12 nutrient mix, without supplementation (Invitrogen, Waltham, MA, cat. 11765054), 100 U/mL penicillin-streptomycin (Invitrogen, cat. 15140122), and 2.5% Matrigel (Corning Inc., Corning, NY, cat. 354248) for the first three passages. All PDCs were cultured in complete DMEM/F-12 media containing advanced DMEM/F-12 (Invitrogen, cat. 12634028), 4.9% defined fetal bovine serum, heat inactivated (HyClone Laboratories Inc., Logan, UT, cat. SH30070.03HI), 389 ng/mL hydrocortisone (Sigma-Aldrich, cat. H4001), 9.7 ng/mL human EGF recombinant protein (Invitrogen, cat. PHG0313), 23.4 microg/mL adenine (Sigma-Aldrich, cat. A2786), 97.3 U/mL penicillin-streptomycin (Invitrogen, cat. 15140122), 1.9 mM L-glutamine (Invitrogen, cat. 25030081), and 9.7 microM Y-27632 dihydrochloride (Tocris Bioscience, Bristol, United Kingdom, cat. 1254). The PDCs were cultured in complete DMEM/F12 media without 9.7 microM Y-27632 dihydrochloride for at least two passages prior to the screen. The established cell line HOP-62 was cultured in RPMI 1640 medium, HEPES (Invitrogen, cat. 22400105) with 10% defined fetal bovine serum (HyClone Laboratories Inc., cat. SH30070.03) and 2 mM L-glutamine (Invitrogen, cat. 25030081). The pooled donor HUVEC were cultured in endothelial cell growth medium 2 (PromoCell, Heidelberg, Germany, cat. C-22011) and the hMSC were cultured in mesenchymal stem cell growth medium 2 (PromoCell, cat. C-28009). For all experiments, HUVEC and hMSC were used at passages </=5, while the malignant cell lines were used at passages </=15. […]

[1] = compound alone, run of 08/19/2021
[2] = compound alone, run of 08/26/2021
[3] = compound alone, run of 09/02/2021
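Further: spheroids exposed to compounds for 7 days.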
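Wherever viability, T/C is given: 100% = DMSO vehicle control viability.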

Compound | viability, T/C (compound 0.1 µM) | IC50 (curve of compound) | viability, T/C (compound 0.316 µM) | viability, T/C (compound 3.16 µM) | viability, T/C (compound 10 µM) | also measured
C=CC(=O)N1CCN(c2nc(=O)n(-c3c(C)ccnc3C(C)C)c3nc(-c4c(O)cccc4F)c(F)cc23)C(C)C1 (stereo not drawn) |  |  |  |  |  | IC50 [1]: > 10 µM; IC50 [2]: > 10 µM; IC50 [3]: > 10 µM
C=CC(=O)N1CCN(c2nc(OCC3CCCN3C)nc3c2CCN(c2cccc4cccc(C)c24)C3)CC1CC#N (stereo not drawn) | 87.5% [middle of 17 runs] |  |  |  |  | IC50 [1]: > 3.16 µM; IC50 [2]: > 3.16 µM; IC50 [3]: > 3.16 µM and 2.39 µM
CC(=O)Nc1cccc(-n2c(=O)n(C3CC3)c(=O)c3c(Nc4ccc(I)cc4F)n(C)c(=O)c(C)c32)c1 |  | > 0.0316 µM and 0.028 µM |  |  |  | viability, T/C (compound 0.0001 µM): 96.8% [middle of 5 runs]; viability, T/C (compound 0.000316 µM): 94.2% [middle of 5 runs]; viability, T/C (compound 0.01 µM): 104% [middle of 5 runs]
CC(=O)OC12COC1CC(O)C1(C)C(=O)C(O)C3=C(C)C(OC(=O)C(O)C(NC(=O)OC(C)(C)C)c4ccccc4)CC(O)(C(OC(=O)c4ccccc4)C21)C3(C)C (stereo not drawn) | 18.5% [middle of 5 runs] | < 0.01 µM | 23.7% [middle of 5 runs] | 36.5% [middle of 5 runs] |  | viability, T/C (compound 0.01 µM): 20.3% [middle of 5 runs]; viability, T/C (compound 0.0316 µM): 23.2% [middle of 5 runs]; viability, T/C (compound 1 µM): 28.8% [middle of 5 runs]
CC(C)NCC(C(=O)N1CCN(c2ncnc3c2C(C)CC3O)CC1)c1ccc(Cl)cc1 (stereo not drawn) |  | 2.24 µM [middle of 5 runs] | 113% [middle of 5 runs] | 32.6% [middle of 5 runs] | 10% [middle of 5 runs] | 
CC(C)n1nc(-c2ccc3oc(N)nc3c2)c2c(N)ncnc21 |  | > 0.1 µM |  |  |  | viability, T/C (compound 0.00316 µM): 127% [middle of 5 runs]
CC1(C)CCC(CN2CCN(c3ccc(C(=O)NS(=O)(=O)c4ccc(NCC5CCOCC5)c([N+](=O)[O-])c4)c(Oc4cnc5[nH]ccc5c4)c3)CC2)=C(c2ccc(Cl)cc2)C1 | 90.1% [middle of 5 runs] | 2.03 µM [middle of 5 runs] | 102% [middle of 5 runs] | 29.4% [middle of 5 runs] | 7.19% [middle of 5 runs] | 
CC1COCCN1c1cc(-c2ccnn2C)c2ccnc(-c3ccn[nH]3)c2n1 (stereo not drawn) |  |  |  | 60% [middle of 5 runs] |  | viability, T/C (compound 0.01 µM): 110% [middle of 5 runs]
CC1OCC2(CCN(c3cnc(Sc4ccnc(N)c4Cl)c(N)n3)CC2)C1N (stereo not drawn) | 92.7% [middle of 19 runs] | 9.31 µM and 8.73 µM and > 10 µM |  |  |  | viability, T/C (compound 0.0316 µM): 82% and 80.9% and 85.5%; IC50 [1]: > 10 µM and 9.29 µM; IC50 [2]: 7.63 µM [middle of 5 runs]; IC50 [3]: > 10 µM and 8.08 µM
CCN1CCN(Cc2ccc(Nc3ncc(F)c(-c4cc(F)c5nc(C)n(C(C)C)c5c4)n3)nc2)CC1 | 95.5% [middle of 5 runs] | > 1 µM | 117% [middle of 5 runs] |  |  | viability, T/C (compound 0.00316 µM): 98% [middle of 4 runs]; viability, T/C (compound 0.01 µM): 90.6% [middle of 5 runs]
CCNC(=O)CC1N=C(c2ccc(Cl)cc2)c2cc(OC)ccc2-n2c(C)nnc21 (stereo not drawn) |  | > 10 µM |  |  | 83.8% [middle of 5 runs] | 
CN(C)C/C=C/C(=O)Nc1cc2c(Nc3ccc(F)c(Cl)c3)ncnc2cc1O[C@H]1CCOC1 | 105% [middle of 5 runs] | > 0.1 µM |  |  |  | 
CNCc1ccccc1-c1csc(C(C)Nc2nc(C)nc3cc(OC)c(OC)cc23)c1 (stereo not drawn) |  |  |  |  | 0.22% [middle of 14 runs] | IC50 [1]: 2.3 µM [middle of 6 runs]; IC50 [2]: 3.18 µM [middle of 5 runs]
COC(=O)c1ccc2c(C(=Nc3ccc(N(C)C(=O)CN4CCN(C)CC4)cc3)c3ccccc3)c(O)[nH]c2c1 | 90.7% [middle of 5 runs] | 1.24 µM [middle of 5 runs] | 92.2% [middle of 5 runs] | 0.53% [middle of 5 runs] | 0.29% [middle of 4 runs] | viability, T/C (compound 0.0316 µM): 93.7% [middle of 5 runs]
COc1cc(Nc2ncc3c(n2)-c2ccc(Cl)cc2C(c2c(F)cccc2OC)=NC3)ccc1C(=O)O | 103% [middle of 5 runs] | > 10 µM |  | 119% [middle of 5 runs] | 132% [middle of 5 runs] | viability, T/C (compound 1 µM): 114% [middle of 5 runs]
COc1cc(OC)cc(N(CCNC(C)C)c2ccc3ncc(-c4cnn(C)c4)nc3c2)c1 | 89.2% [middle of 5 runs] |  | 91.1% [middle of 5 runs] |  |  | viability, T/C (compound 0.0316 µM): 92.5% [middle of 5 runs]; viability, T/C (compound 1 µM): 95.6% [middle of 5 runs]
COc1cc2nc(C)nc(NC(C)c3cc(N)cc(C(F)(F)F)c3)c2cc1OC1CCOC1 (stereo not drawn) |  |  |  |  |  | IC50 [2]: 5.81 µM [middle of 5 runs]; IC50 [3]: > 10 µM and 7.54 µM
COc1cc2nccc(Oc3ccc(NC(=O)C4(C(=O)Nc5ccc(F)cc5)CC4)cc3)c2cc1OC |  | 1.75 µM [middle of 5 runs] | 86.7% [middle of 5 runs] | 8.3% [middle of 5 runs] | 7.11% [middle of 5 runs] | viability, T/C (compound 0.0316 µM): 102% [middle of 5 runs]; viability, T/C (compound 1 µM): 83.7% [middle of 5 runs]
Cn1nccc1Nc1nccc(-c2cc3c(s2)C(C)(C)N(CCN2CCOCC2)C3=O)n1 | 94.8% [middle of 5 runs] | > 10 µM | 109% [middle of 5 runs] | 96% [middle of 5 runs] | 81.8% [middle of 5 runs] | viability, T/C (compound 0.0316 µM): 90.9% [middle of 5 runs]
Cn1ncnc1[C@H]1c2n[nH]c(=O)c3cc(F)cc(c23)N[C@@H]1c1ccc(F)cc1 |  | > 0.1 µM |  |  |  | viability, T/C (compound 0.01 µM): 82.8% [middle of 5 runs]
O=C(c1cc(Cc2n[nH]c(=O)c3ccccc23)ccc1F)N1CCN(C(=O)C2CC2)CC1 | 88.5% [middle of 5 runs] | > 10 µM |  | 79.6% [middle of 5 runs] |  | 
